Source: patent US20250127774A1, “COMPOUNDS FOR LABELLING NUCLEIC ACID AND USES THEREOF” (THE ROYAL INSTITUTION FOR THE ADVANCEMENT OF …, priority 2022, published 2025)
“And” between values parts separate entries of the source, which are not always exact repeats. Identical values can stand only once.

Tests used:
[1] = tested on: VdU-labeled DNA in living Hela cells; experiment: Live-cell metabolic labeling, PINK staining kinetics; assay type: cell-based
Protocol: To evaluate the ability of PINK to enter live cells and undergo fluorogenic reactions with vinyl groups in native chromatin, Hela cells were grown in rich media containing 10 μM VdU for 15 h and subsequently stained with 1-2 μM PINK for 4 h. Total cellular DNA was counterstained with Hoechst […] (5 μM; 405 nm laser; emission 410-480 nm) for 10 minutes prior to imaging PINK (514 nm laser; emission 570-700 nm). Control (ctrl) samples were treated with PINK but not VdU. All cells were treated and maintained in DMEM media containing 10% FBS and grown in 5% CO2 at 37° C. Live cell images were acquired using a confocal microscope.
The intracellular reaction kinetics of PINK staining was next investigated. Cells were seeded at a concentration of 2.5×10^4 cells/mL, allowed to settle overnight, and incubated with 100 μM VdU for 24 h. Cells were stained with 10 μM PINK between 10 min and 25 h, co-stained with Hoechst 33342 (5 μg/mL), and images were acquired on a confocal microscope. Samples were optimized for an ideal signal to noise ratio after staining for 1 h, illustrating a sufficiently bright signal at this stage. Ctrl samples were exposed to PINK for 25 h, thus explaining the relatively high background. […] Labeling was efficient in multiple cell lines. U2OS cells were seeded in μ-slide 8-well (Ibidi®) (3.0×10^4 cells in 200 μL; 1.5×10^5 cells/mL) in DMEM and given 20 h to settle. Cells were aspirated and VdU (0-100 μM in 200 μL DMEM) was added. Cells were incubated for 18 h, aspirated, and PINK (5 μM in 200 μL DMEM, 0.05% DMSO) was added. Cells were incubated for 5 h, aspirated, and Hoechst 33342 (2 μg/mL in 200 μL DMEM) was added for 15 min. Cells were aspirated and the media was exchanged for 200 μL DMEM (-Phenol Red). Images were acquired on a confocal microscope (FIG. 11). […] Cells (5.0×10^4 cells/mL) were seeded and allowed to settle overnight. Cells were incubated with 20 μM VdU for 16 h and stained with 2 μM PINK for 5 h, Cells were aspirated and fresh media (w/o Phenol Red) was added. Control Samples received identical treatment, but were not exposed to VdU. […]

[2] = tested on: calf thymus (CT) DNA; experiment: Binding affinity measurements of PINK with CT-DNA (absorbance changes at 575 nm); settings: 10 μM PINK, CT-DNA 0-160 μM base pairs, 50 mM NaOAc buffer pH 5.2 (0.2% DMSO); 1 molecule per 5 base pairs; read-out: apparent dissociation constant (KD)
Protocol: B) Fluorescence changes (excitation: 500 nm, emission: 590 nm; 515 nm cutoff filter) of 20 μM PINK in the presence of 1 mM b.p. CT-DNA (50 eq) in PBS pH 7.4 (10% DMSO) followed by addition of 5-norbornene-2-methanol (2 mM, 100 eq).
To evaluate the ability of PINK (4) to undergo reversible intercalation into duplex DNA, the absorbance of PINK was monitored upon addition of calf-thymus (CT) DNA. Consistent with intercalation,^[42-44] a bathochromic shift in PINK absorbance was observed upon addition of CT DNA (FIG. 3, a). To further evaluate the binding mode, viscosity measurements of concentrated DNA solutions were conducted in presence of increasing amounts of PINK. […] By taking the maximum binding stoichiometry of PINK into account (1 molecule per 5 base pairs; see FIG. 1b), an apparent dissociation constant KD can be calculated according to KD=[(unbound PINK)*(unbound DNA binding sites)]/(PINK-bound binding sites).
Binding Affinity Measurements of PINK with CT-DNA. Binding of PINK to CT-DNA was assessed by monitoring changes of absorbance collecting measurements on a SpectraMax M5 plate reader (Molecular Devices, Sunnyvale, CA, USA) in 1 cm path-length quartz cuvettes. […] Binding of PINK to CT-DNA and determination of an apparent binding constant (KD) was calculated by plotting changes of absorbance at 575 nm.

[3] = tested on: MV4-11 cells; experiment: Cell counting assay (Trypan Blue); assay type: cell-based, human; settings: MV4-11, 5 μM nucleoside, 1 μM PINK
Protocol: (§1) To confirm the cytotoxicity results obtained from the resazurin assays, a cell counting assay was conducted using Trypan Blue. It is an azo dye allows to discriminate between viable cells and dead cells, since dead cells will take in the dye, while viable cells will remain white. 28 From the resazurin assays, and after some optimization based on cell sensitivity to the vinyl-nucleosides, it was determined that […] and 5 μM of vinyl-nucleosides alone and in combination with 1 μM of PINK were two interesting concentrations to explore in Jurkat, MV4-11, and MOLM-13 cells. Cells were incubated with 5 μM or 10 μM of each nucleoside overnight (Day 0), and 1 μM of PINK was added for the combinations and PINK alone 24h post nucleoside incubation (Day 1). The cells were counted every 24h.
(§2) Cell Counting Assay. Jurkat, MV4-11 and MOLM-13 cells were seeded in 12-well plates at a density of 500 000 cells/mL, 175 000 cells/mL and 375 000 cells/mL, respectively, in duplicates. The cells were incubated overnight in fresh media containing 10 μM (Jurkat) or 5 μM (MV4-11 and MOLM-13) of each nucleoside (˜0.01% DMSO). 24h post nucleoside addition, 1 μM of PINK (˜0.01% DMSO) were added to the respective wells and incubated for 24 h. The cells were counted using a cell counter (BIO RAD TC20) to determine the percentage of viable cells and the cell concentration. The cells were counted every 24h using Trypan Blue in a 1:1 ratio.

[4] = tested on: MOLM-13 cells; experiment: Cell counting assay (Trypan Blue); assay type: cell-based, human; settings: MOLM-13, 5 μM nucleoside, 1 μM PINK
Protocol: as §1, §2

[5] = 100 μM VdU 24 h, then 10 μM PINK

Compound	retention of fluorescent signal in living cells ([1]; 20 μM VdU 16 h, 2 μM PINK 5 h, fresh media, t=0, 24 h)	incubation time after which a clear signal above background is observed [1, 5] [h]	staining duration ideal to achieve complete labeling [1, 5] [h]	Kd [2]	cell concentration (cell growth) [3]	cell concentration (cell growth) [4]
Cc1nnc(-c2ccc3cc4ccc(N(C)C)cc4nc3c2)nn1 [PINK]	retained in living cells 24 h after being removed from the media	1	5	5 µM and 5.1 µM		
C=Cc1cn([C@H]2C[C@H](O)[C@@H](CO)O2)c(=O)[nH]c1=O [VdU, 5-vinyl-2′-deoxyuridine]					significantly inhibited cell growth	seem to inhibit cell growth
